Article PMC8159961, “Exploring protein hotspots by optimized fragment pharmacophores” (Nature Communications, 2021)

What was measured:
human 5-HT6 receptor = target: T1, human 5-HT6 receptor (Homo sapiens, UniProt P50406); assay: GPCR radioligand binding assay, [3H]-LSD displacement, HEK293 membranes; details: for 5-HT6 % Inhibition by plate position: 10 µM; for %inh 5-HT6 average: average of exp_1 and exp_2; for %inh 5-HT6 corrected*: average, values below 0 and above 100% were set as 0 and 100; for %inh 5-HT6 exp_1: replicate exp_1; for %inh 5-HT6 exp_2: replicate exp_2
T1 construct: expressed in transfected cells

human 5-HT7b receptor = target: T2, human 5-HT7b receptor (Homo sapiens, UniProt P34969); assay: GPCR radioligand binding assay, [3H]-5-CT displacement, HEK293 membranes; details: for 5-HT7 % Inhibition by plate position: 10 µM; for %inh 5-HT7 exp_1: replicate exp_1; for %inh 5-HT7 exp_2: replicate exp_2; for %inh 5-HT7 average: average of exp_1 and exp_2
T2 construct: expressed in transfected cells

human 5-HT1A receptor = target: T3, human 5-HT1A receptor (Homo sapiens, UniProt P08908); assay: GPCR radioligand binding assay, [3H]-8-OH-DPAT displacement, HEK293 membranes; details: for %inh 5-HT1A average: average of exp_1 and exp_2; for %inh 5-HT1A corrected*: average, values below 0 and above 100% were set as 0 and 100; for %inh 5-HT1A exp_1: replicate exp_1; for %inh 5-HT1A exp_2: replicate exp_2; for 5-HT1A % Inhibition by plate position: 10 µM
T3 construct: expressed in transfected cells
T3 sequence (P08908 1-422): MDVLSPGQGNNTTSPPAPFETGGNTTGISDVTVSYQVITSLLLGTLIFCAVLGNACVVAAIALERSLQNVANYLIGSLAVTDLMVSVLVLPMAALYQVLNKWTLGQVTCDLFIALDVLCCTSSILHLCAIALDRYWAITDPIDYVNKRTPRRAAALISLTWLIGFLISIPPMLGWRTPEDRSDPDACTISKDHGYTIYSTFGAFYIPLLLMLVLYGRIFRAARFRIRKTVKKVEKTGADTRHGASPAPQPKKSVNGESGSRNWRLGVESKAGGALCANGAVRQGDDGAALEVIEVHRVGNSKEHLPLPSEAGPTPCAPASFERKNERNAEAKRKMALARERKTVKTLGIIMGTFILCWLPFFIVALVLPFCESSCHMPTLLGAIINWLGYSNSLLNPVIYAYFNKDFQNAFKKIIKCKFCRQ

T2 sequence (P34969 1-432): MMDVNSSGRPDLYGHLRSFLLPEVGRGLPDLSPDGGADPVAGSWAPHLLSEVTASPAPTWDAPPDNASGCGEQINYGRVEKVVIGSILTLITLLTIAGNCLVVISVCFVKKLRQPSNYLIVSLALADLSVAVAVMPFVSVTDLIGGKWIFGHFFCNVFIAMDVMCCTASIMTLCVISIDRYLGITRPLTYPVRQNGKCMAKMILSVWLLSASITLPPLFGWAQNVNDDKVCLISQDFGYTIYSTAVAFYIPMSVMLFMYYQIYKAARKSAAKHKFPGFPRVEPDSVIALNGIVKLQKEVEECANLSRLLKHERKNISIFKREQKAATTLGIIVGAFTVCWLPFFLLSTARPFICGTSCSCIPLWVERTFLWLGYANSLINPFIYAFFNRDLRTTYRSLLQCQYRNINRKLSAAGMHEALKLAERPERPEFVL
T1 sequence (P50406 whole entry): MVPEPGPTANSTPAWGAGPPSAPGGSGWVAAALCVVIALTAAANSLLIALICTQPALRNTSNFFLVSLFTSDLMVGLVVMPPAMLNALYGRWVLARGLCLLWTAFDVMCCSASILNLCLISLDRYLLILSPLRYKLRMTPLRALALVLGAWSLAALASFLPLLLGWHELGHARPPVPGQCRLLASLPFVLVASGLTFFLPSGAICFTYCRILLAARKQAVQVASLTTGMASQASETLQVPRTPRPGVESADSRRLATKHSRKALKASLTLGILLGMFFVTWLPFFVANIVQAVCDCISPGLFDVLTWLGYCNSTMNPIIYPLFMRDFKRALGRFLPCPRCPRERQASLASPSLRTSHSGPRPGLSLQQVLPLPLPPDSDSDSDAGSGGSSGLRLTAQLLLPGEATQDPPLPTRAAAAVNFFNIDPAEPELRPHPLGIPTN

| Structure (SMILES) | 5-HT6 % Inhibition by plate position (human 5-HT6 receptor) [%] | %inh 5-HT6 average (human 5-HT6 receptor) [%] | %inh 5-HT6 corrected* (human 5-HT6 receptor) [%] | %inh 5-HT6 exp_1 (human 5-HT6 receptor) [%] | %inh 5-HT6 exp_2 (human 5-HT6 receptor) [%] | 5-HT7 % Inhibition by plate position (human 5-HT7b receptor) [%] | %inh 5-HT7 exp_1 (human 5-HT7b receptor) [%] | %inh 5-HT7 exp_2 (human 5-HT7b receptor) [%] | %inh 5-HT1A average (human 5-HT1A receptor) [%] | %inh 5-HT1A corrected* (human 5-HT1A receptor) [%] | %inh 5-HT1A exp_1 (human 5-HT1A receptor) [%] | %inh 5-HT1A exp_2 (human 5-HT1A receptor) [%] | 5-HT1A % Inhibition by plate position (human 5-HT1A receptor) [%] | %inh 5-HT7 average (human 5-HT7b receptor) [%] |
| --- | --- | --- | --- | --- | --- | --- | --- | --- | --- | --- | --- | --- | --- | --- |
| c1ccc2c(N3CCNCC3)ccnc2c1 [C4] | 72 | 72 | 72 | 71 | 72 | 16 | 17 | 15 | 81 | 81 | 78 | 83 | – | – |
| O=c1ccc2c([nH]1)CCCC2 [C5] | 46 | 46 | 46 | 39 | 53 | 1 | 0.605 | 1.43 | -1.35 | – | -18 | 15 | 0 | – |
| CC1(C)OC(=O)c2cc(Br)c(O)cc2O1 [C6] | 56 | 56 | 56 | 67 | 45 | 0.891 | 1.78 | 0 | -0.191 | – | -7.5 | 7 | 0 | – |
| CC(=O)c1ccc2c(c1)CCCN2 [C7] | 9 | 9 | 9 | 10 | 8 | 0 | -14 | -18 | 2.29 | 2.29 | -2 | 6.6 | – | -16 |
| CC(=O)c1ccc2c(c1)CNCC2 [C8] | 2.55 | 2.55 | 2.55 | 6 | -1 | 4 | 8 | 0 | -13 | – | -22 | -3.26 | 0 | – |
| O=C1NC2(CCCC2)Nc2ccccc21 [C9] | 44 | 44 | 44 | 46 | 41 | 5 | -2.47 | 13 | -0.0168 | – | 4.43 | -4.46 | 0 | – |
| O=c1[nH]c2c(s1)CCC2 [C10] | 42 | 42 | 42 | 44 | 39 | 0.592 | -6.56 | 8 | -4 | – | 2.56 | -11 | 0 | – |
| C1=C[C@H]2O[C@@H]1c1ccccc12 [C11] | 46 | 46 | 46 | 42 | 50 | 0 | -5.66 | -11 | -11 | – | -11 | -11 | 0 | -8 |
| N#Cc1ccc2ncsc2c1 [C12] | 35 | 35 | 35 | 39 | 32 | 0 | -6 | -8.5 | 5.41 | 5.41 | 11 | -0.546 | – | -7 |
| Nc1ccc(SC(F)F)cc1 [D1] | 45 | 45 | 45 | 52 | 38 | 8 | 5.58 | 10 | -16 | – | -6.6 | -25 | 0 | – |
| CCc1ccc(NC2=NCCCS2)cc1 [D2] | 16 | 16 | 16 | 19 | 13 | 6 | 12 | 0.291 | 29 | 29 | 30 | 27 | – | – |
| CCn1cnc2ccccc21 [D4] | 23 | 23 | 23 | 23 | 23 | 0 | 1.55 | -12 | -8 | – | -16 | 0 | 0 | -5.34 |
| CCCN1C(=O)CC(=O)NC1=S [D5] | 49 | 49 | 49 | 57 | 41 | 10 | 13 | 6 | -8.49 | – | -9 | -8 | 0 | – |
| Cc1ccc(C)n1Cc1ccccc1Cl [D6] | 26 | 26 | 26 | 30 | 23 | 0 | -2.55 | -8.54 | 6.37 | 6.37 | 4.33 | 8 | – | -5.55 |
| Cc1ccc(-c2ccc(O)cc2)cc1 [D7] | 45 | 45 | 45 | 52 | 38 | 0 | 2.16 | -17 | -20 | – | -25 | -14 | 0 | -7.45 |
| c1ccc2oc(C3CCCNC3)nc2c1 (centres unmarked) [D10] | 25 | 25 | 25 | 22 | 28 | 0 | -4 | 3.22 | 78 | 78 | 77 | 80 | – | -0.305 |
| COc1ccc(CN2CCNCC2)cc1F [D11] | 41 | 41 | 41 | 45 | 38 | 0 | -5 | 4.58 | -7 | – | 10 | -23 | 0 | -0.31 |
| O=C(c1ccncc1)N1CCNCC1 [E2] | 24 | 24 | 24 | 15 | 33 | 3.34 | 1.81 | 5 | 3.69 | 3.69 | 13 | -6 | – | – |
| CC1C(=O)NC(=O)N1c1ccc(Cl)cc1 (centres unmarked) [E3] | 43 | 43 | 43 | 41 | 44 | 17 | 19 | 14 | -4 | – | 5 | -13 | 0 | – |
